Measurements published in US10385065B2, “Antibacterial compounds” (priority 2014, dated 2019).
≈ marks a conversion by molar mass, not a printed value. Like-named read-outs stand apart in the source and are kept apart here.

Experiments:
Assay type in all cases: cell-based
[1] = system: Staphylococcus aureus ATCC 29213; assay: MIC, broth microdilution, S. aureus ATCC 29213
[2] = system: S. aureus NRS1 MRSA; assay: MIC, S. aureus NRS1; conditions: Staphylococcus aureus; Table 2; read-out: MIC S. aureus NRS1 MRSA AMG & TET resistant
[3] = system: S. aureus NRS482 MRSA FQ resistant; assay: MIC, S. aureus NRS482; conditions: Staphylococcus aureus; Table 2
[4] = system: human hepatic cell line (HepG2 ATCC HB-8065); assay: Human cell viability assay (CellTiter-Glo), HepG2; conditions: HepG2, 24 h incubation, tested over 1-128 μg/mL, read-out: IC50 values against HepG2
Procedure: Compounds are assessed for potential non-specific cytotoxic effects against a human hepatic cell line (HepG2 ATCC HB-8065). HepG2 cells are seeded at 20,000 cells/well in 96-well microtitre plates in minimal essential medium (MEM) supplemented with a final concentration of 10% FBS and 1 mM sodium pyruvate. After 24 h compound dilutions are prepared in Dulbecco's minimum essential media (DMEM) supplemented with final concentrations of 0.001% FBS, 0.3% bovine albumin and 0.02% HEPES and added to cells. Compounds are tested in two-fold serial dilutions over a final concentration range of 1-128 μg/mL in a final DMSO concentration of 1% vol/vol. Chlorpromazine is used as a positive control. Cells are incubated with compound at 37° C. and 5% CO2 for a further 24 h, after which time the CellTiter-Glo reagent (Promega) is added. Luminescence is measured on a BMG Omega plate reader. Data are analysed using GraphPad Prism software to determine the concentration of compound that inhibits cell viability by fifty percent (IC50).

[5] = system: S. aureus NRS127 MRSA LZD resistant; assay: MIC, S. aureus NRS127; conditions: Staphylococcus aureus; Table 2
[6] = system: S. aureus (MRSA) ATCC 43300; assay: MIC, S. aureus ATCC 43300; conditions: Staphylococcus aureus; Table 2; read-out: MIC S. aureus (MRSA) ATCC 43300 Heterogeneous MRSA strain
[7] = system: S. aureus VRS1 MRSA VAN resistant; assay: MIC, S. aureus VRS1; conditions: Staphylococcus aureus, Table 2
[8] = system: Escherichia coli ATCC 25922; assay: MIC, broth microdilution, E. coli ATCC 25922; conditions: ATCC25922, Table 1, wild type strain
[9] = system: Enterococcus faecium ATCC 19434; assay: MIC, E. faecium ATCC 19434; conditions: ATCC19434, Table 2
[10] = system: Haemophilus influenzae ATCC 49247; assay: MIC, H. influenzae ATCC 49247; conditions: ATCC49247, Table 4
[11] = system: S. aureus SACPX1-SP25 MSSA - FQ resistant; assay: microbe, parasite or virus in culture; conditions: Staphylococcus aureus, ATCC 29213 / MSSA, read-out: MIC S. aureus SACPX1-SP25 MSSA - FQ resistant (isogenic mutant of ATCC 29213)
[12] = system: S. epidermidis NRS101 MRSE; assay: MIC, S. epidermidis NRS101; conditions: Staphylococcus epidermidis; Table 2; read-out: MIC S. epidermidis NRS101 MRSE AMG, ERY resistant
[13] = ATCC29213, Table 1, wild type strain, read-out: MIC S. aureus ATCC 29213
[14] = ATCC 29213 / MSSA, Table 2, read-out: MIC S. aureus (MSSA) ATCC 29213 CLSI control strain

| MIC [1, 13] [µg/mL] | MIC [1, 14] [µg/mL] | MIC [2] [µg/mL] | MIC [3] [µg/mL] | IC50 [4] [µg/mL] | MIC [5] [µg/mL] | MIC [6] [µg/mL] | MIC [7] [µg/mL] | MIC [8] [µg/mL] | MIC [9] [µg/mL] | MIC [10] [µg/mL] | MIC [12] [µg/mL] | Structure (SMILES) | MIC [11] [µg/mL] |
| --- | --- | --- | --- | --- | --- | --- | --- | --- | --- | --- | --- | --- | --- |
| 1 to 10 (≈ 2.81 to 28.1 µM) | 1 to 10 (≈ 2.81 to 28.1 µM) | 10 to 100 (≈ 28.1 to 281 µM) | 10 to 100 (≈ 28.1 to 281 µM) | 10 to 100 (≈ 28.1 to 281 µM) | 10 to 100 (≈ 28.1 to 281 µM) | 1 to 10 (≈ 2.81 to 28.1 µM) | > 100 | 1 to 10 (≈ 2.81 to 28.1 µM) | 10 to 100 (≈ 28.1 to 281 µM) | 1 to 10 (≈ 2.81 to 28.1 µM) | – | Cc1nc2c(=O)n(C3CC3)c3cc(N4CCC(N)CC4)c(F)cc3c2o1 [Compound 49, 7-(4-amino-1-piperidyl)-5-cyclopropyl-8-fluoro-2-methyl-oxazolo[4,5-c]quinolin-4-one] | – |
| < 1 | < 1 | – | 1 to 10 (≈ 2.69 to 26.9 µM) | – | < 1 | < 1 | < 1 | 1 to 10 (≈ 2.69 to 26.9 µM) | > 100 | < 1 | 1 to 10 (≈ 2.69 to 26.9 µM) | Nc1cc(F)c(-c2cc3c(cc2F)c2ocnc2c(=O)n3C2CC2)cc1F [Compound 69, 7-(4-amino-2,5-difluoro-phenyl)-5-cyclopropyl-8-fluoro-oxazolo[4,5-c]quinolin-4-one] | – |
| < 1 | < 1 | 1 to 10 (≈ 2.62 to 26.2 µM) | 1 to 10 (≈ 2.62 to 26.2 µM) | – | 1 to 10 (≈ 2.62 to 26.2 µM) | < 1 | 10 to 100 (≈ 26.2 to 262 µM) | 1 to 10 (≈ 2.62 to 26.2 µM) | 10 to 100 (≈ 26.2 to 262 µM) | 1 to 10 (≈ 2.62 to 26.2 µM) | – | Cc1nc2c(=O)n(C3CC3)c3cc(-c4ccc(CN)c(F)c4)c(F)cc3c2o1 [Compound 76, 7-[4-(aminomethyl)-3-fluoro-phenyl]-5-cyclopropyl-8-fluoro-2-methyl-oxazolo[4,5-c]quinolin-4-one] | – |
| 1 to 10 (≈ 2.77 to 27.7 µM) | 1 to 10 (≈ 2.77 to 27.7 µM) | 1 to 10 (≈ 2.77 to 27.7 µM) | 1 to 10 (≈ 2.77 to 27.7 µM) | 10 to 100 (≈ 27.7 to 277 µM) | 1 to 10 (≈ 2.77 to 27.7 µM) | 1 to 10 (≈ 2.77 to 27.7 µM) | 1 to 10 (≈ 2.77 to 27.7 µM) | 10 to 100 (≈ 27.7 to 277 µM) | 10 to 100 (≈ 27.7 to 277 µM) | 1 to 10 (≈ 2.77 to 27.7 µM) | – | C[C@H]1COc2c(-c3ccc(C(N)=O)cc3)ccc3c4ocnc4c(=O)n1c23 [Compound 96, 4-[(2S)-2-methyl-15-oxo-4,11-dioxa-1,13-diazatetracyclo[7.6.1.0^5,^16.0^10,^14]hexadeca-5(16),6,8,10(14),12-pentaen-6-yl]benzamide] | – |
| < 1 | < 1 | 1 to 10 (≈ 2.52 to 25.2 µM) | < 1 | – | 1 to 10 (≈ 2.52 to 25.2 µM) | < 1 | 1 to 10 (≈ 2.52 to 25.2 µM) | 1 to 10 (≈ 2.52 to 25.2 µM) | – | < 1 | – | Cc1c(-c2cc(F)c(N)cc2F)ccc2c3oc(CO)nc3c(=O)n(C3CC3)c12 [Compound 99, 7-(4-amino-2,5-difluorophenyl)-5-cyclopropyl-2-(hydroxymethyl)-6-methyloxazolo[4,5-c]quinolin-4-one] | – |
| < 1 | < 1 | < 1 | < 1 | – | < 1 | < 1 | < 1 | < 1 | > 100 | 1 to 10 (≈ 2.68 to 26.8 µM) | 1 to 10 (≈ 2.68 to 26.8 µM) | Cc1c(-c2ccc3[nH]ncc3c2)ccc2c3scnc3c(=O)n(C3CC3)c12 [Compound 109, 5-Cyclopropyl-7-(1H-indazol-5-yl)-6-methyl-thiazolo[4,5-c]quinolin-4-one] | – |

| Structure (SMILES) | MIC [1, 13] [µg/mL] | MIC [1, 14] [µg/mL] | MIC [2] [µg/mL] | MIC [3] [µg/mL] | IC50 [4] [µg/mL] | MIC [5] [µg/mL] | MIC [6] [µg/mL] | MIC [7] [µg/mL] | MIC [8] [µg/mL] | MIC [9] [µg/mL] | MIC [10] [µg/mL] | MIC [12] [µg/mL] | MIC [11] [µg/mL] |
| --- | --- | --- | --- | --- | --- | --- | --- | --- | --- | --- | --- | --- | --- |
| Cc1nc2c(=O)n(C3CC3)c3cc(N4CC[C@H](CN)C4)c(F)cc3c2o1 [Compound 52, 7-[(3R)-3-(aminomethyl)pyrrolidin-1-yl]-5-cyclopropyl-8-fluoro-2-methyl-oxazolo[4,5-c]quinolin-4-one] | 1 to 10 (≈ 2.81 to 28.1 µM) | 1 to 10 (≈ 2.81 to 28.1 µM) | 1 to 10 (≈ 2.81 to 28.1 µM) | 1 to 10 (≈ 2.81 to 28.1 µM) | 10 to 100 (≈ 28.1 to 281 µM) | 1 to 10 (≈ 2.81 to 28.1 µM) | < 1 | 1 to 10 (≈ 2.81 to 28.1 µM) | 1 to 10 (≈ 2.81 to 28.1 µM) | 10 to 100 (≈ 28.1 to 281 µM) | 1 to 10 (≈ 2.81 to 28.1 µM) | – | 1 to 10 (≈ 2.81 to 28.1 µM) |
| NC1CCN(c2nc3c(cc2F)c2ocnc2c(=O)n3C2CC2)C1 (centres unmarked) [Compound 80, 7-(3-aminopyrrolidin-1-yl)-5-cyclopropyl-8-fluoro-oxazolo[4,5-c][1,8]naphthyridin-4-one] | 1 to 10 (≈ 3.04 to 30.4 µM) | 1 to 10 (≈ 3.04 to 30.4 µM) | – | – | – | – | – | – | 1 to 10 (≈ 3.04 to 30.4 µM) | 10 to 100 (≈ 30.4 to 304 µM) | 10 to 100 (≈ 30.4 to 304 µM) | – | 10 to 100 (≈ 30.4 to 304 µM) |
